From patent US8101754B2, “Triazole compounds suitable for treating disorders that respond to modulation of the dopamine D3 receptor” (Abbott GmbH & Co. KG, priority 2004, dated 2012)
Where two headings read alike, the source gives them in different places.

What was measured:
[1] = molecular target: T1, human dopamine D3 receptors (Homo sapiens, UniProt P35462); assay: Dopamine D3 receptor binding ([125I]-iodosulpride displacement)
T1 construct: expressed in transfected cells; membranes)
Procedure: The substance to be tested was either dissolved in methanol/Chremophor® (BASF-AG) or in dimethyl sulfoxide and then diluted with water to the desired concentration.
Each assay mixture was run in triplicate.
The incubation buffer contained 50 mM tris, 120 mM NaCl, 5 mM KCl, 2 mM CaCl2, 2 mM MgCl2 and 0.1% bovine serum albumin, 10 μM quinolone and 0.1% ascorbic acid (prepared fresh daily). The buffer was adjusted to pH 7.4 with HCl.
Measurement and Analysis:
After having been incubated at 25° C. for 60 minutes, the assay mixtures were filtered through a Wathman GF/B glass fiber filter under vacuum using a cell collecting device. The filters were transferred to scintillation viols using a filter transfer system. After 4 ml of Ultima Gold® (Packard) have been added, the samples were shaken for one hour and the radioactivity was then counted in a Beta-Counter (Packard, Tricarb 2000 or 2200CA). The cpm values were converted into dpm using a standard quench series and the program belonging to the instrument.
The inhibition curves were analyzed by means of iterative nonlinear regression analysis using the Statistical Analysis System (SAS) which is similar to the “LIGAND” program described by Munson and Rodbard.

[2] = molecular target: T2, human dopamine D2L receptors (long isoform) (Homo sapiens, UniProt P14416); assay: Dopamine D2L receptor binding ([125I] iodospiperone), basis of selectivity Ki(D2)/Ki(D3); conditions: for Selectivity [Ki(D2)/Ki(D3)]: D2L vs D3; for D2/D3: Table 7, compounds of formula IIa
T2 construct: expressed in transfected cells; membranes)
T2 sequence (P14416 whole entry, canonical isoform): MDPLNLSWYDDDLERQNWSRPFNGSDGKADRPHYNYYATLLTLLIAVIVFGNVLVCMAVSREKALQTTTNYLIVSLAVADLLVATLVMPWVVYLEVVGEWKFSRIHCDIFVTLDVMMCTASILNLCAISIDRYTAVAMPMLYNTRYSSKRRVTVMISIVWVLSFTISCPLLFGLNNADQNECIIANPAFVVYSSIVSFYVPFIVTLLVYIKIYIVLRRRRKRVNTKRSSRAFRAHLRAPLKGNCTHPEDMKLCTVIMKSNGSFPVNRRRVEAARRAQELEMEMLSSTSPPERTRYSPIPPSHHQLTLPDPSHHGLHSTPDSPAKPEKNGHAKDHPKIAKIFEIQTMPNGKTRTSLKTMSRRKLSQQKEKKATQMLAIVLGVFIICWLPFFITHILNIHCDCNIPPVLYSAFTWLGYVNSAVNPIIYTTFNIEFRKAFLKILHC
Procedure: The substance to be tested was either dissolved in methanol/Chremophor® (BASF-AG) or in dimethyl sulfoxide and then diluted with water to the desired concentration. […] Each assay mixture was run in triplicate. The incubation buffer contained 50 mM tris, 120 mM NaCl, 5 mM KCl, 2 mM CaCl2, 2 mM MgCl2 and 0.1% bovine serum albumin. The buffer was adjusted to pH 7.4 with HCl. Measurement and Analysis: After having been incubated at 25° C. for 60 minutes, the assay mixtures were filtered through a Wathman GF/B glass fiber filter under vacuum using a cell collecting device. The filters were transferred to scintillation viols using a filter transfer system. After 4 ml of Ultima Gold® (Packard) have been added, the samples were shaken for one hour and the radioactivity was then counted in a Beta-Counter (Packard, Tricarb 2000 or 2200CA). The cpm values were converted into dpm using a standard quench series and the program belonging to the instrument. The inhibition curves were analyzed by means of iterative nonlinear regression analysis using the Statistical Analysis System (SAS) which is similar to the “LIGAND” program described by Munson and Rodbard.

[3] = Concentration of compounds in plasma and brain following oral dosing; assay type: in vivo, Sprague-Dawley rats; conditions: male rats, 10 mg/kg orally by gavage
Procedure: 2. Determination of the Concentration of Compounds in Plasma and Brain Following Dosing of Compounds in Animals
Male Sprague-Dawley rats were used in this study (2 to 4 per experiment). The animals were fasted overnight prior to dosing and throughout the duration of the study but were permitted water ad libitum.
Each rat received a 10 mg/kg (5 mL/kg) dose orally by gavage. At 0.5, 3 and 8 hours after drug administration, three animals were put under deep anesthesia using isoflurane and euthanized by bleeding (cardiac puncture) under deep isoflurane anesthesia. EDTA blood samples and brain tissue will be collected from each rat. Upon collection, the samples were promptly placed in an ice bath, and within 2 hours after sample collection, the blood was centrifuged at about 4° C. The resulting brain and plasma samples were placed in clean glass tubes and stored in a freezer until analysis.
The plasma samples were assayed for parent compound using appropriate liquid chromatography—mass spectrometry procedures. The results for compounds I are given in tables 2, and illustrate the high brain concentrations attainable with the compounds of the invention.

[4] = Table 5, membranes of HEK-293 cells, read-out: Ki D3
[5] = Table 6, membranes of HEK-293 cells, read-out: ki D3
[6] = Table 7, compounds of formula IIa, read-out: D3
[7] = compounds II, read-out: Ki D3 values

T1 sequence (P35462 whole entry): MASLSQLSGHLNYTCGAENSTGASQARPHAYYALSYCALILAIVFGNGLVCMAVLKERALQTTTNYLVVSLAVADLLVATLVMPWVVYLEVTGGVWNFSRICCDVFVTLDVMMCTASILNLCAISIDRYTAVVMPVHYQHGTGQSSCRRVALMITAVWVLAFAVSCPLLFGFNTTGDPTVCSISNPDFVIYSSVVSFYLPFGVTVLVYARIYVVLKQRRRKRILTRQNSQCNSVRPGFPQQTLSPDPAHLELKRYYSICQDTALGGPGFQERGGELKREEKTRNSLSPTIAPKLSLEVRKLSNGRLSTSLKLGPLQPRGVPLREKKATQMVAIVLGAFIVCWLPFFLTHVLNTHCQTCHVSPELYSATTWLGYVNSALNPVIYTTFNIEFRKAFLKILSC

Row | Structure (SMILES) | Ki [1, 5] [nM] | Selectivity [Ki(D2)/Ki(D3)] ([2]; Table 6) | Ki [1, 6] [nM] | Ki [1, 7] [nM] | D2/D3 [2] | further results
1 | Cl.Cn1cnnc1SCCCN1CCN(c2cc(C(F)(F)F)nc(C(C)(C)C)n2)CC1 |  |  |  |  |  | melting point: 92 to 95 °C
2 | Cc1nnc([S+]([O-])CCCN2CCN(c3cc(C(C)(C)C)nc(C(C)(C)C)n3)CC2)n1C (racemic) [Example 1, 2,4-Di-tert-butyl-6-{4-[3-(4,5-dimethyl-4H-[1,2,4]triazole-3-sulfinyl)-propyl]-piperazin-1-yl}-pyrimidine] |  |  |  |  |  | Ki [1, 4]: 19.5 nM; Selectivity [Ki(D2)/Ki(D3)] ([2]; Table 5): 26; Brain level ([3]; Table 5): 1670 ng/g
3 | Cc1nnc(S(=O)(=O)CCCN2CCN(c3cc(C(C)(C)C)nc(C(C)(C)C)n3)CC2)n1C [Example 4, 2,4-Di-tert-butyl-6-{4-[3-(4,5-dimethyl-4H-[1,2,4]triazole-3-sulfonyl)-propyl]-piperazin-1-yl}-pyrimidine] |  |  |  |  |  | Ki [1, 4]: 6.1 nM; Selectivity [Ki(D2)/Ki(D3)] ([2]; Table 5): 34; Brain level ([3]; Table 5): 1920 ng/g
4 | Cn1cnnc1S(=O)(=O)CCCN1CCN(c2cc(C3CCCC3)nc(C(C)(C)C)n2)CC1 [Example 24, 2-tert-Butyl-4-{4-[3-(4-methyl-1H-[1,2,4]triazole-3-sulfonyl)-propyl]-piperazin-1-yl}-6-cyclopentyl-pyrimidine] | 7.5 | 20 |  |  |  | 
5 | Cn1cnnc1[S+]([O-])CCCN1CCN(c2cc(C3CCCC3)nc(C(C)(C)C)n2)CC1 (stereo not shown) [Example 25, 2-tert-Butyl-4-{4-[3-(4-methyl-1H-[1,2,4]triazole-3-sulfinyl)-propyl]-piperazin-1-yl}-6-cyclopentyl-pyrimidine] | 23.3 | 30 |  |  |  | 
6 | CCCc1cc(N2CCN(CCCS(=O)(=O)c3nncn3C)CC2)nc(C(C)(C)C)n1 [Example 26, 2-tert-Butyl-4-{4-[3-(4-methyl-1H-[1,2,4]triazole-3-sulfonyl)-propyl]-piperazin-1-yl}-6-propyl-pyrimidine] | 44.6 | 33 |  |  |  | 
7 | Cn1cnc(S(=O)(=O)CCCN2CCN(c3cc(C(C)(C)C)nc(C(C)(C)C)n3)CC2)n1 [Example 27, 2,6-di-tert-Butyl-4-{4-[3-(1-methyl-1H-[1,2,4]triazole-3-sulfonyl)-propyl]-piperazin-1-yl}-pyrimidine] | 9.7 | 24 |  |  |  | 
8 | CCCc1cc(N2CCN(CCC[S+]([O-])c3ncn(C)n3)CC2)nc(C(C)(C)C)n1.Cl (stereo not shown) [Example 28, 2-tert-Butyl-4-{4-[3-(1-methyl-1H-[1,2,4]triazole-3-sulfinyl)-propyl]-piperazin-1-yl}-6-propyl-pyrimidine hydrochloride] | 9.9 | 158 |  |  |  | 
9 | CCCc1cc(N2CCN(CCCS(=O)(=O)c3ncn(C)n3)CC2)nc(C(C)(C)C)n1 [Example 29, 2-tert-Butyl-4-{4-[3-(1-methyl-1H-[1,2,4]triazole-3-sulfonyl)-propyl]-piperazin-1-yl}-6-propyl-pyrimidine] | 20.3 | 59 |  |  |  | 
10 | Cl.Cn1cnc([S+]([O-])CCCN2CCN(c3cc(C(C)(C)C)nc(C(C)(C)C)n3)CC2)n1 (stereo not shown) [Example 30, 2,6-di-tert-Butyl-4-{4-[3-(1-methyl-1H-[1,2,4]triazole-3-sulfinyl)-propyl]-piperazin-1-yl}-pyrimidine hydrochloride] | 3.5 | 51 |  |  |  | 
11 | CC(C)(C)c1nc(N2CCN(CCCS(=O)(=O)c3nc[nH]n3)CC2)cc(C2(C)CC2)n1 [Example 31, 2-tert-butyl-6-{4-[3-(1H-[1,2,4]triazole-3-sulfonyl)-propyl]-piperazin-1-yl}-6-(1-methyl)cyclopropyl-pyrimidine] | 22.6 | 37 |  |  |  | 
12 | COCc1nnc(SCCCN2CCN(c3cc(C(F)F)nc(C(C)(C)C)n3)CC2)n1C.Cl [c.4, 2-tert-Butyl-4-{4-[3-(4-methyl-5-methoxymethyl-4H-[1,2,4]triazol-3-ylsulfanyl)-propyl]-piperazin-1-yl}-6-difluoromethyl-pyrimidine hydrochloride] |  |  | 1.5 | < 5 | 96 | Brain level ([3]; Table 7): 290 ng/g
13 | Cl.Cn1c(SCCCN2CCN(c3cc(C(F)F)nc(C(C)(C)C)n3)CC2)nnc1C(C)(C)C [c.7, 2-tert-Butyl-4-{4-[3-(4-methyl-5-tert-butyl-4H-[1,2,4]triazol-3-ylsulfanyl)-propyl]-piperazin-1-yl}-6-difluoromethyl-pyrimidine hydrochloride] |  |  | 1.2 | < 5 | 115 | 
14 | CCCc1cc(N2CCN(CCCSc3nnc(CC)n3C)CC2)nc(C(C)(C)C)n1.Cl [c.11, 2-tert-Butyl-4-{4-[3-(4-methyl-5-ethyl-4H-[1,2,4]triazol-3-ylsulfanyl)-propyl]-piperazin-1-yl}-6-propyl-pyrimidine hydrochloride] |  |  | 1.7 |  | 470 | Brain level ([3]; Table 7): 840 ng/g
15 | CCCc1cc(N2CCN(CCCSc3nnc(COC)n3C)CC2)nc(C(C)(C)C)n1.Cl [c.12, 2-tert-Butyl-4-{4-[3-(4-methyl-5-methoxymethyl-4H-[1,2,4]triazol-3-ylsulfanyl)-propyl]-piperazin-1-yl}-6-propyl-pyrimidine hydrochloride] |  |  | 2.4 | < 5 | 143 | Brain level ([3]; Table 7): 780 ng/g
16 | Cl.Cn1c(SCCCN2CCN(c3cc(C(F)(F)F)nc(C(C)(C)C)n3)CC2)nnc1C(F)(F)F [c.13, 2-tert-Butyl-4-{4-[3-(4-methyl-5-trifluoromethyl-4H-[1,2,4]triazol-3-ylsulfanyl)-propyl]-piperazin-1-yl}-6-trifluoromethyl-pyrimidine hydrochloride] |  |  | 1.3 |  | 157 | 
17 | Cc1nnc(SCCCN2CCN(c3cc(C(F)(F)F)nc(C(C)(C)C)n3)CC2)n1C.Cl [c.14, 2-tert-Butyl-4-{4-[3-(4-methyl-5-methyl-4H-[1,2,4]triazol-3-ylsulfanyl)-propyl]-piperazin-1-yl}-6-trifluoromethyl-pyrimidine hydrochloride] |  |  | 1.5 |  | 135 | 
18 | CCc1nnc(SCCCN2CCN(c3cc(C(F)(F)F)nc(C(C)(C)C)n3)CC2)n1C.Cl [c.15, 2-tert-Butyl-4-{4-[3-(4-methyl-5-ethyl-4H-[1,2,4]triazol-3-ylsulfanyl)-propyl]-piperazin-1-yl}-6-trifluoromethyl-pyrimidine hydrochloride] |  |  | 2 | < 5 | 364 | Brain level ([3]; Table 7): 1410 ng/g
19 | COCc1nnc(SCCCN2CCN(c3cc(C(F)(F)F)nc(C(C)(C)C)n3)CC2)n1C.Cl [c.16, 2-tert-Butyl-4-{4-[3-(4-methyl-5-methoxymethyl-4H-[1,2,4]triazol-3-ylsulfanyl)-propyl]-piperazin-1-yl}-6-trifluoromethyl-pyrimidine hydrochloride] |  |  | 0.65 | < 5 | 237 | 
20 | Cl.Cn1c(SCCCN2CCN(c3cc(C(F)(F)F)nc(C(C)(C)C)n3)CC2)nnc1C1CC1 [c.17, 2-tert-Butyl-4-{4-[3-(4-methyl-5-cyclopropyl-4H-[1,2,4]triazol-3-ylsulfanyl)-propyl]-piperazin-1-yl}-6-trifluoromethyl-pyrimidine hydrochloride] |  |  | 0.9 | < 5 | 293 | melting point: 182 to 184 °C
21 | CC(=O)O.Cn1c(SCCCN2CCN(c3cc(C(F)(F)F)nc(C(C)(C)C)n3)CC2)nnc1C1CCC1 [c.18, 2-tert-Butyl-4-{4-[3-(4-methyl-5-cyclobutyl-4H-[1,2,4]triazol-3-ylsulfanyl)-propyl]-piperazin-1-yl}-6-trifluoromethyl-pyrimidine acetate] |  |  | 2.9 | < 5 | 134 | 
